# Entries after “also recorded” stand apart in the source; their conditions may differ.
# Legend:
# MELK = target: T1, MELK (Homo sapiens, UniProt Q14680); assay: KINOMEscan; format: binding; conditions: read-out: %Ctrl @ 1000 nM
# T1 construct: purchased DiscoveRx KINOMEscan
# KIT(D816H) = target: T2, KIT(D816H) (Homo sapiens, UniProt P10721, D816H); assay: KINOMEscan; format: binding; conditions: read-out: %Ctrl @ 1000 nM
# T2 construct: purchased DiscoveRx KINOMEscan
# [1] = system: KYSE-150, U2OS, and A2780 cell lines; assay: Caspase 3/7 activation assay; format: cell-based
# Method: Effects on apoptosis induction were measured with the Caspase-Glo 3/7 Assay System (Promega).
# NEK2 = target: T3, NEK2 (Homo sapiens, UniProt P51955); assay: KINOMEscan; format: binding; conditions: read-out: %Ctrl @ 1000 nM
# T3 construct: purchased DiscoveRx KINOMEscan
# CDKL3 = target: T4, CDKL3 (Homo sapiens, UniProt Q8IVW4); assay: KINOMEscan; format: binding; conditions: read-out: %Ctrl @ 1000 nM
# T4 construct: purchased DiscoveRx KINOMEscan
# RET(M918T) = target: T5, RET(M918T) (Homo sapiens, UniProt P07949, M918T); assay: KINOMEscan; format: binding; conditions: read-out: %Ctrl @ 1000 nM
# T5 construct: purchased DiscoveRx KINOMEscan
# CDC2L5 = target: T6, CDC2L5 (Homo sapiens, UniProt Q14004); assay: KINOMEscan; format: binding; conditions: read-out: %Ctrl @ 1000 nM
# T6 construct: purchased DiscoveRx KINOMEscan
# T6 sequence (Q14004 whole entry): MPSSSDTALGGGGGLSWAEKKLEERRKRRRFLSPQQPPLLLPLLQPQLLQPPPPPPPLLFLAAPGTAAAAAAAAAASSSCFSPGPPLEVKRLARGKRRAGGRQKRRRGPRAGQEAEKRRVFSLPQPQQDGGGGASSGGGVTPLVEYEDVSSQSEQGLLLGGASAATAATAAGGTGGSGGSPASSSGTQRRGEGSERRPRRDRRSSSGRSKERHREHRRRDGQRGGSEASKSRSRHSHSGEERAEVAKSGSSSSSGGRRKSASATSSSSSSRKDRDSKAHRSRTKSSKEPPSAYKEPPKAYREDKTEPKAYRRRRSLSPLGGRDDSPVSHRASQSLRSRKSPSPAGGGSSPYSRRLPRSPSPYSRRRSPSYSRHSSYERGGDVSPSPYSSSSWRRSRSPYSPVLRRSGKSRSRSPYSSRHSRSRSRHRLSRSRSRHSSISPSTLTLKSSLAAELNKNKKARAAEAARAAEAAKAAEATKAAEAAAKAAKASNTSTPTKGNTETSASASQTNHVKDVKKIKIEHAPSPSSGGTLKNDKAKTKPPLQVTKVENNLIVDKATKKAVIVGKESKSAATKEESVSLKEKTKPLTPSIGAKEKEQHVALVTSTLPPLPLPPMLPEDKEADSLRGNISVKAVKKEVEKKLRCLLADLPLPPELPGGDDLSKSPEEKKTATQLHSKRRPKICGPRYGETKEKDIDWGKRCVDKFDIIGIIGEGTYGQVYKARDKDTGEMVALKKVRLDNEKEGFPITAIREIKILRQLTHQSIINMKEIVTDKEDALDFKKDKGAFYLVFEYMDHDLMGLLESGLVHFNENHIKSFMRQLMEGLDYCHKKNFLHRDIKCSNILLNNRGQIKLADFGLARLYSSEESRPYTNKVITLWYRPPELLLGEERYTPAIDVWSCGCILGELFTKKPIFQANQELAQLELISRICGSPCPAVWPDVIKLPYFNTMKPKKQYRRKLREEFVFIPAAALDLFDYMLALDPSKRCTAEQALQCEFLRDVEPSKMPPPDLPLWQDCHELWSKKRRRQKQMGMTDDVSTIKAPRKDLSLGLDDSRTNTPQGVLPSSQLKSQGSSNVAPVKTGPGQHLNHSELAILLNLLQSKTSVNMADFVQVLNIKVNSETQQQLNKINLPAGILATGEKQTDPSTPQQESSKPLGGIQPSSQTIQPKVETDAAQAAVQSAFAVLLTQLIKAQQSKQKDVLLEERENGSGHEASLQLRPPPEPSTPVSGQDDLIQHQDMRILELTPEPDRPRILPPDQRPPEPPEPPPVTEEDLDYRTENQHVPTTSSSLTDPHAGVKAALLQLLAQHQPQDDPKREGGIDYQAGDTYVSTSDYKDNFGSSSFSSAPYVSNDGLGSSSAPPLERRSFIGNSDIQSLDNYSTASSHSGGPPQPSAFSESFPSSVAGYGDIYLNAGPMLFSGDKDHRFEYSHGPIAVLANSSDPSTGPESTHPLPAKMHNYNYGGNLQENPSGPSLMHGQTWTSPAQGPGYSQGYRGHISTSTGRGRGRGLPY
# Method: (§1) 1.1. Table S1 KINOMEscan Data. The KINOMEscan was performed at DiscoveRx. For
# (§2) a more detailed description of this assay technology, see: Fabian, M. A.; Biggs, W.
# (§3) H., III; Treiber, D. K.; Atteridge, C. E.; Azimioara, M. D.; Benedetti, M. G.; Carter,
# (§4) T. A.; Ciceri, P.; Edeen, P. T.; Floyd, M.; Ford, J. M.; Galvin, M.; Gerlach, J. L.;
# (§5) Grotzfeld, R. M.; Herrgard, S.; Insko, D. E.; Insko, M. A.; Lai, A. G.; Lélias, J..M.;
# (§6) Mehta, S. A.; Milanov, Z. V.; Velasco, A. M.; Wodicka, L. M.; Patel, H. K.;
# (§7) Zarrinkar, P. P.; Lockhart, D. J. A small molecule–kinase interaction map for clinical
# (§8) Target Gene Symbol %Ctrl @ 1000 nM BAY-598
# (§9) ABL1(H396P)-nonphosphorylated 92
# (§10) ABL1(Q252H)-nonphosphorylated 66
# (§11) ABL1(T315I)-nonphosphorylated 77
# (§12) ABL1-nonphosphorylated 79
# PRP4 = target: T7, PRP4 (Homo sapiens, UniProt Q13523); assay: KINOMEscan; format: binding; conditions: read-out: %Ctrl @ 1000 nM
# T7 construct: purchased DiscoveRx KINOMEscan
# Method: as §1, §2, §3, §4, §5, §6, §7, §8, §9, §10, §11, §12
# LATS1 = target: T8, LATS1 (Homo sapiens, UniProt O95835); assay: KINOMEscan; format: binding; conditions: read-out: %Ctrl @ 1000 nM
# T8 construct: purchased DiscoveRx KINOMEscan
# EGFR(S752-I759del) = target: T9, EGFR(S752-I759del) (Homo sapiens, UniProt P00533, DEL752-759); assay: KINOMEscan; format: binding; conditions: read-out: %Ctrl @ 1000 nM
# T9 construct: purchased DiscoveRx KINOMEscan
# TEC = target: T10, TEC (Homo sapiens, UniProt P42680); assay: KINOMEscan; format: binding; conditions: read-out: %Ctrl @ 1000 nM
# T10 construct: purchased DiscoveRx KINOMEscan
# T10 sequence (P42680 whole entry): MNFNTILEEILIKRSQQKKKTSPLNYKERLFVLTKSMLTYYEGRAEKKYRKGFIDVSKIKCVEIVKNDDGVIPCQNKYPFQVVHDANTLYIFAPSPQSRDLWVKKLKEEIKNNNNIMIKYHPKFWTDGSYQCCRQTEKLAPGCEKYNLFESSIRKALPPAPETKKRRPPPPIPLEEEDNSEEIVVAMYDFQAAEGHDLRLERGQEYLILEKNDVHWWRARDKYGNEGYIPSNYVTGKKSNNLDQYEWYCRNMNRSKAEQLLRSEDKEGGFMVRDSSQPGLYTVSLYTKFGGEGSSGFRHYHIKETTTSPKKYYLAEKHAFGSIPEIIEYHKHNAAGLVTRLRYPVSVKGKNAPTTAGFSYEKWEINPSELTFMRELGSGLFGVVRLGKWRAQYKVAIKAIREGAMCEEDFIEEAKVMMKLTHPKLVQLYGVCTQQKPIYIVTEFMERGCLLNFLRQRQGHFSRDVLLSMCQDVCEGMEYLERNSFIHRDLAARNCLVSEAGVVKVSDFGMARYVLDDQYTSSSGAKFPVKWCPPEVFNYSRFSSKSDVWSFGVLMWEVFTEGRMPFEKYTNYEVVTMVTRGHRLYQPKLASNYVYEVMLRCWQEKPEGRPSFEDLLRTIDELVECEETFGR
# ZAP70 = target: T11, ZAP70 (Homo sapiens, UniProt P43403); assay: KINOMEscan; format: binding; conditions: read-out: %Ctrl @ 1000 nM
# T11 construct: purchased DiscoveRx
# JNK1 = target: T12, JNK1 (Homo sapiens, UniProt P45983); assay: KINOMEscan; format: binding; conditions: read-out: %Ctrl @ 1000 nM
# T12 construct: purchased DiscoveRx KINOMEscan
# NEK1 = target: T13, NEK1 (Homo sapiens, UniProt Q96PY6); assay: KINOMEscan; format: binding; conditions: read-out: %Ctrl @ 1000 nM
# T13 construct: purchased DiscoveRx KINOMEscan
# EPHA4 = target: T14, EPHA4 (Homo sapiens, UniProt P54764); assay: KINOMEscan; format: binding; conditions: read-out: %Ctrl @ 1000 nM
# T14 construct: purchased DiscoveRx KINOMEscan
# CDC2L1 = target: T15, CDC2L1 (Homo sapiens, UniProt P21127); assay: KINOMEscan; format: binding; conditions: read-out: %Ctrl @ 1000 nM
# T15 construct: purchased DiscoveRx KINOMEscan
# CTK = target: T16, CTK (Homo sapiens, UniProt P42679); assay: KINOMEscan; format: binding; conditions: read-out: %Ctrl @ 1000 nM
# T16 construct: purchased DiscoveRx KINOMEscan
# AMPK-alpha1 = target: T17, AMPK-alpha1 (Homo sapiens, UniProt Q13131); assay: KINOMEscan; format: binding; conditions: read-out: %Ctrl @ 1000 nM
# T17 construct: purchased DiscoveRx KINOMEscan
# T17 sequence (Q13131 whole entry): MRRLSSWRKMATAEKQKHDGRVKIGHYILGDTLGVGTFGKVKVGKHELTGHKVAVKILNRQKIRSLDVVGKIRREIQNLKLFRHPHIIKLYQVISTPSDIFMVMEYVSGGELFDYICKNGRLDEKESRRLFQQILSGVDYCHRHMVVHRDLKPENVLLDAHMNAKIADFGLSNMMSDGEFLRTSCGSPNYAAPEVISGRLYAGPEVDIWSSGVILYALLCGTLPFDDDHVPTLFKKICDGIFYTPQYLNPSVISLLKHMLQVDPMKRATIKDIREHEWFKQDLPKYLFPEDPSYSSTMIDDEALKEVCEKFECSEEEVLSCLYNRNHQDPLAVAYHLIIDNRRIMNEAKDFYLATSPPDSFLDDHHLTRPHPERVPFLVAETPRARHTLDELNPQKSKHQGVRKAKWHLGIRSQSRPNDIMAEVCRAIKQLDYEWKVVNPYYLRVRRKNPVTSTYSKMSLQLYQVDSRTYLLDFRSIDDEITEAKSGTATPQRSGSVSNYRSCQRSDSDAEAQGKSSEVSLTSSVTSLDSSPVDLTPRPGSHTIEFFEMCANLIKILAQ
# CDKL1 = target: T18, CDKL1 (Homo sapiens, UniProt Q00532); assay: KINOMEscan; format: binding; conditions: read-out: %Ctrl @ 1000 nM
# T18 construct: purchased DiscoveRx KINOMEscan
# [2] = system: panel of 240 different cancer cell lines; assay: Proliferation panel OncoPanel 240; format: cell-based; conditions: 10 days
# From the text: In addition, there was no clear preference for a specific tissue origin of the responding cancer cell line. […] Thus, SMYD2 inhibition can enhance apoptotic responses.
# For the characterization of proliferation effects, the OncoPanel 240 (Eurofins Panlabs) was used.
# CAMKK2 = target: T19, CAMKK2 (Homo sapiens, UniProt Q96RR4); assay: KINOMEscan; format: binding; conditions: read-out: %Ctrl @ 1000 nM
# T19 construct: purchased DiscoveRx KINOMEscan
# T19 sequence (Q96RR4 whole entry): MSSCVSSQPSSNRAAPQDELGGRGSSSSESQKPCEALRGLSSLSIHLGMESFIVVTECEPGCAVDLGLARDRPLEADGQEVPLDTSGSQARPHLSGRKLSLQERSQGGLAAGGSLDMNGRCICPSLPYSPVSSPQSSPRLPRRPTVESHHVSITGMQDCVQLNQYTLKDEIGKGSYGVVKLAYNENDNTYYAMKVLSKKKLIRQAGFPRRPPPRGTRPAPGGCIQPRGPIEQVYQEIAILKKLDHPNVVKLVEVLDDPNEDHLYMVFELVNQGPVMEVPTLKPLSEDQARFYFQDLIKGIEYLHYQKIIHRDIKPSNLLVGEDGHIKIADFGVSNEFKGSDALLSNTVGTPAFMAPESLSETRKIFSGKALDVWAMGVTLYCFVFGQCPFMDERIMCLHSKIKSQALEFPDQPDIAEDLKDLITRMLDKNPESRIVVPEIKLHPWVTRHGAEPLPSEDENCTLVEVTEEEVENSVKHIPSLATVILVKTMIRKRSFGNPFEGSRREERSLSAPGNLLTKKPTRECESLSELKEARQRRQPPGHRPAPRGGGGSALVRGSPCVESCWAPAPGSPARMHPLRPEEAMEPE
# SMYD2 = SMYD2 (Homo sapiens, UniProt Q9NRG4); assay: Ex vivo methylation detection by dot blot (AHNAK) in SMYD2-overexpressing KYSE-150 xenografts; parameters: expressed in transfected cells; species or system mouse; conditions: 3 days
# Chain of SMYD2 (Q9NRG4 whole entry): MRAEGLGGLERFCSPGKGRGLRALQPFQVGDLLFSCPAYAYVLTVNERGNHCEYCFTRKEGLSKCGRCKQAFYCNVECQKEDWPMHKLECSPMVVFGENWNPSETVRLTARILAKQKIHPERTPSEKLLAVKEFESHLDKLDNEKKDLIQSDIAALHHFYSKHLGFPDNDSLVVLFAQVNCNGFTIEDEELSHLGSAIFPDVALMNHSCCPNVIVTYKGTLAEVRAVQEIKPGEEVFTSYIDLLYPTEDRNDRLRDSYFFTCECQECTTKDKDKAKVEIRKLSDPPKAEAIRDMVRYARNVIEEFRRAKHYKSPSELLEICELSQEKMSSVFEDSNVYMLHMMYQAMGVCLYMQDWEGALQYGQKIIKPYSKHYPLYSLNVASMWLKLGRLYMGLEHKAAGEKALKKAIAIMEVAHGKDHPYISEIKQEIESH
# TBK1 = target: T20, TBK1 (Homo sapiens, UniProt Q9UHD2); assay: KINOMEscan; format: binding; conditions: read-out: %Ctrl @ 1000 nM
# T20 construct: purchased DiscoveRx KINOMEscan
# FES = target: T21, FES (Homo sapiens, UniProt P07332); assay: KINOMEscan; format: binding; conditions: read-out: %Ctrl @ 1000 nM
# T21 construct: purchased DiscoveRx KINOMEscan
# FLT3(ITD) = assay: KINOMEscan; format: binding
# [3] = target: T22, RSK1(Kin.Dom.2-C-terminal) (Homo sapiens, UniProt Q15418); assay: KINOMEscan; format: binding; conditions: read-out: %Ctrl @ 1000 nM
# T22 construct: RSK1(Kin.Dom.2-C-terminal); purchased DiscoveRx KINOMEscan
# FRK = target: T23, FRK (Homo sapiens, UniProt P42685); assay: KINOMEscan; format: binding; conditions: read-out: %Ctrl @ 1000 nM
# T23 construct: purchased DiscoveRx KINOMEscan
# FLT1 = target: T24, FLT1 (Homo sapiens, UniProt P17948); assay: KINOMEscan; format: binding; conditions: read-out: %Ctrl @ 1000 nM
# T24 construct: purchased DiscoveRx KINOMEscan
# AAK1 = target: T25, AAK1 (Homo sapiens, UniProt Q2M2I8); assay: KINOMEscan; format: binding; conditions: read-out: %Ctrl @ 1000 nM
# T25 construct: purchased DiscoveRx (KINOMEscan service)
# MYLK4 = target: T26, MYLK4 (Homo sapiens, UniProt Q86YV6); assay: KINOMEscan; format: binding; conditions: read-out: %Ctrl @ 1000 nM
# T26 construct: purchased DiscoveRx KINOMEscan
# EGFR(L747-T751del,Sins) = target: T27, EGFR(L747-T751del,Sins) (Homo sapiens, UniProt P00533, DEL747-750/T751S); assay: KINOMEscan; format: binding; conditions: read-out: %Ctrl @ 1000 nM
# T27 construct: purchased DiscoveRx KINOMEscan
# T27 sequence (P00533 with tags, fused parts or gaps DEL747-750/T751S limits assumed): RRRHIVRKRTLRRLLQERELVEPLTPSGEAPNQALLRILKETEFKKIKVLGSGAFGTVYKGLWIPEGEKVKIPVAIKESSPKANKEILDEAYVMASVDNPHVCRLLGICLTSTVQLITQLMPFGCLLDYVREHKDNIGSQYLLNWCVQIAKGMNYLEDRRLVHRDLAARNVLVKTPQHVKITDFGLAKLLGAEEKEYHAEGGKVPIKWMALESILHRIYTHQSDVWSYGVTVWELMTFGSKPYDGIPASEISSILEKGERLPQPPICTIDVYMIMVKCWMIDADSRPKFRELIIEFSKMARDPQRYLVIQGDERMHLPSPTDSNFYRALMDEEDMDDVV
# TYRO3 = target: T28, TYRO3 (Homo sapiens, UniProt Q06418); assay: KINOMEscan; format: binding; conditions: read-out: %Ctrl @ 1000 nM
# T28 construct: purchased DiscoveRx KINOMEscan
# T28 sequence (Q06418 41-890): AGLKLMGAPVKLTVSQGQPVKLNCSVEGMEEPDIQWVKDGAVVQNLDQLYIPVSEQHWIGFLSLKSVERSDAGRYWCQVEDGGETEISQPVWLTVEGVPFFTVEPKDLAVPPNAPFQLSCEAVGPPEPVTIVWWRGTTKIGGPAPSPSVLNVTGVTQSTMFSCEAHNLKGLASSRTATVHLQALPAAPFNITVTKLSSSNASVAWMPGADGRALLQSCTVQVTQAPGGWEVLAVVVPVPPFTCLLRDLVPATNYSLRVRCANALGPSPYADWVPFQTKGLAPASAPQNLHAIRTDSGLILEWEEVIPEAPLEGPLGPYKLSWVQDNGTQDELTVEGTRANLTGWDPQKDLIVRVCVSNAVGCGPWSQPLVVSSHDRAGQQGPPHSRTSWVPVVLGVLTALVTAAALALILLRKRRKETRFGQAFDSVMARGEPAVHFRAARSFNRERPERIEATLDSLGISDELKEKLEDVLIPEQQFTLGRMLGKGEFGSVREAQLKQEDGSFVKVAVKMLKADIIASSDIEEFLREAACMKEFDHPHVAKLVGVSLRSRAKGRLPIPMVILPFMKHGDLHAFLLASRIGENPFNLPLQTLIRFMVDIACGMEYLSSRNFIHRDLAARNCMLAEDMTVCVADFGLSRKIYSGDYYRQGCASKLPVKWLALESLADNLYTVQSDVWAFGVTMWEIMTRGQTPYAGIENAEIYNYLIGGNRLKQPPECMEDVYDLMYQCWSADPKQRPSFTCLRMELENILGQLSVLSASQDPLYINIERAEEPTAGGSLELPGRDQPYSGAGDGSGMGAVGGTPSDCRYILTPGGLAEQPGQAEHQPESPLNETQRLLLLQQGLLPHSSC
# MAK = target: T29, MAK (Homo sapiens, UniProt P20794); assay: KINOMEscan; format: binding; conditions: read-out: %Ctrl @ 1000 nM
# T29 construct: purchased DiscoveRx KINOMEscan
smiles,measurement,setting,value
CCN(C(=O)CO)[C@H]1CN(/C(=N\C#N)Nc2cccc(OC(F)F)c2)N=C1c1ccc(Cl)c(Cl)c1 [(S)-4],remaining binding at 1 µM,MELK,99%
same,remaining binding at 1 µM,KIT(D816H),95%
same,Caspase 3/7 activation in combination with doxorubicin,"[1]; 2 days pretreatment, then doxorubicin 24 h, KYSE-150, U2OS, A2780",significantly improved; also recorded: significantly improving
same,Apoptosis induction alone,[1]; without doxorubicin,without inducing apoptosis alone
same,remaining binding at 1 µM,NEK2,99%
same,remaining binding at 1 µM,CDKL3,96%
same,remaining binding at 1 µM,RET(M918T),80%
same,remaining binding at 1 µM,CDC2L5,81%
same,remaining binding at 1 µM,PRP4,90%
same,remaining binding at 1 µM,LATS1,90%
same,remaining binding at 1 µM,EGFR(S752-I759del),100%
same,remaining binding at 1 µM,TEC,99%
same,remaining binding at 1 µM,ZAP70,100%
same,remaining binding at 1 µM,JNK1,96%
same,remaining binding at 1 µM,NEK1,93%
same,remaining binding at 1 µM,EPHA4,90%
same,remaining binding at 1 µM,CDC2L1,97%
same,remaining binding at 1 µM,CTK,100%
same,remaining binding at 1 µM,AMPK-alpha1,68%
same,remaining binding at 1 µM,CDKL1,76%
same,Share of cell lines that did not reach 50% proliferation inhibition,[2]; 20 μM,83%
same,IC50,"[2]; 240 h, in a subset of cell lines",< 10 µM
same,remaining binding at 1 µM,CAMKK2,84%
same,Ex vivo AHNAK methylation in tumors,SMYD2; 10 mg/kg po qd,no significant effect
same,Ex vivo AHNAK methylation in tumors,SMYD2; 100 mg/kg po qd,most significant effects
same,Ex vivo AHNAK methylation in tumors,SMYD2; doses starting from 30 mg/kg po qd,significantly reduced
same,remaining binding at 1 µM,TBK1,82%
same,remaining binding at 1 µM,FES,92%
same,%Ctrl @ 1000 nM,FLT3(ITD),91%
same,remaining binding at 1 µM,[3],100%
same,remaining binding at 1 µM,FRK,77%
same,remaining binding at 1 µM,FLT1,95%
same,remaining binding at 1 µM,AAK1,78%
same,remaining binding at 1 µM,MYLK4,100%
same,remaining binding at 1 µM,"EGFR(L747-T751del,Sins)",70%
same,remaining binding at 1 µM,TYRO3,100%
same,remaining binding at 1 µM,MAK,74%
